Data as given in US8940896B2, “Tetra-cyclic carboline derivatives useful in the inhibition of angiogenesis” (PTC Therapeutics, Inc., priority 2004, dated 2015).

Tested on: VEGF
Assay: Hypoxia-inducible endogenous VEGF expression, VEGF ELISA assay
Assay type: cell-based
Conditions: HeLa cells, hypoxic conditions (1% O2, 5% CO2), VEGF in conditioned media
Procedure, shortened: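 HeLa cells cultured 24-48 h under hypoxia (1% O2) with or without compound; VEGF in conditioned medium quantified by ELISA against a standard curve. EC50 from dose-response percent inhibition, with parallel CellTiter-Glo CC50 under identical conditions.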

| SMILES | EC50 [nM] |
| --- | --- |
| COc1ccc(C2c3[nH]c4ccccc4c3CC3C(=O)N(C4CCCCC4)C(=O)N32)cc1 (stereo not drawn) [Compound 54] | > 1000 |
| C=CCN1C(=O)C2Cc3c([nH]c4ccccc34)C(c3ccccc3OC)N2C1=S (stereo not drawn) [Compound 85] | > 1000 |

Same assay, conditions: Homo sapiens, HeLa, HeLa cells, hypoxic conditions (1% O2, 5% CO2), VEGF in conditioned media

| SMILES | EC50 [nM] |
| --- | --- |
| COc1cccc(C2c3[nH]c4ccc(Br)cc4c3CC3C(=O)N(C4CCCC4)C(=S)N32)c1 (stereo not drawn) [Compound 20] | < 8 |
| COc1ccc(C2c3[nH]c4ccc(Br)cc4c3CC3C(=O)N(c4ccccc4C(C)C)C(=S)N32)cc1 (stereo not drawn) [Compound 183] | 40 to 200 |
| CCN1C(=O)C2Cc3c([nH]c4ccccc34)C(c3ccc(OC)cc3)N2C1=O (stereo not drawn) [Compound 66] | > 1000 |
| CC(C)N1C(=O)C2Cc3c([nH]c4ccc(Br)cc34)C(c3ccc(OCCCn4cncn4)cc3)N2C1=S (stereo not drawn) [Compound 184] | < 8 |
| CC(C)NCCCOc1ccc(C2c3[nH]c4ccc(Br)cc4c3CC3C(=O)N(c4ccc(Cl)cc4)C(=S)N32)cc1 (stereo not drawn) [Compound 194] | 8 to 40 |
| COc1ccccc1C1c2[nH]c3ccccc3c2CC2C(=O)N(c3ccc(C)cc3)C(=S)N21 (stereo not drawn) [Compound 91] | > 1000 |
| O=C1C2Cc3c([nH]c4ccc(Br)cc34)C(c3ccc(OCCCCl)cc3)N2C(=S)N1c1ccc(Cl)cc1 (stereo not drawn) [Compound 188] | < 8 |
| CC(C)N1C(=O)C2Cc3c([nH]c4ccccc34)C(c3cccc(Cl)c3)N2C1=S (stereo not drawn) [Compound 68] | > 1000 |
| CC(C)N1C(=O)C2Cc3c([nH]c4ccc(Cl)cc34)C(c3ccc(-c4cncnc4)cc3)N2C1=O (stereo not drawn) [Compound 126] | 200 to 1000 |
| COc1ccc(C2c3[nH]c4ccccc4c3CC3C(=O)N(C4CCCCC4)C(=O)N32)cc1 (stereo not drawn) [Compound 48] | > 1000 |
